# Data as given in ChEMBL document CHEMBL1201862, “PubChem BioAssay data set” (2004).
# Calls of active or inactive are those of the source. Rule as the data show it, for most assays here: actives have a measured EC50 and inactives only a lower limit.
# Assays:
# [1] = intracellular Trypanosoma cruzi inhibitors in host cells – cell-based, plate reader, cherry-pick samples, set 3, dose response (AID 651818); assay type: functional;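 also: compounds incubated with infected cells for about four days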
# [2] = DRD fibroblast viability loss – cell-based, non-viral oncogenic, luminescence, dose response (AID 1934); assay type: functional; settings: Homo sapiens
# BJ [3] = experiment: BJ-TERT-LT-ST fibroblast viability loss – cell-based, RAS-independent, luminescence, dose response (AID 1935); assay type: functional; settings: Homo sapiens;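 also: BJ fibroblasts immortalized with TERT plus LT and ST oncogenes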
# BJ [4] = experiment: cells; assay type: functional, cell-based; settings: Homo sapiens
# BJ [5] = experiment: BJ-TERT fibroblast viability loss – cell-based, RAS-independent, luminescence, dose response (AID 1933); assay type: functional; settings: Homo sapiens
# [6] = molecular target: Heat shock protein HSP 90-alpha (Homo sapiens, UniProt P07900); assay type: functional, organism-based
# [7] = molecular target: Luciferin 4-monooxygenase (Photinus pyralis, UniProt P08659); experiment: inhibition of purified Photinus pyralis luciferase – biochemical, luminescence, dose response (AID 1891)
# Sequence of Luciferin 4-monooxygenase (P08659 whole entry): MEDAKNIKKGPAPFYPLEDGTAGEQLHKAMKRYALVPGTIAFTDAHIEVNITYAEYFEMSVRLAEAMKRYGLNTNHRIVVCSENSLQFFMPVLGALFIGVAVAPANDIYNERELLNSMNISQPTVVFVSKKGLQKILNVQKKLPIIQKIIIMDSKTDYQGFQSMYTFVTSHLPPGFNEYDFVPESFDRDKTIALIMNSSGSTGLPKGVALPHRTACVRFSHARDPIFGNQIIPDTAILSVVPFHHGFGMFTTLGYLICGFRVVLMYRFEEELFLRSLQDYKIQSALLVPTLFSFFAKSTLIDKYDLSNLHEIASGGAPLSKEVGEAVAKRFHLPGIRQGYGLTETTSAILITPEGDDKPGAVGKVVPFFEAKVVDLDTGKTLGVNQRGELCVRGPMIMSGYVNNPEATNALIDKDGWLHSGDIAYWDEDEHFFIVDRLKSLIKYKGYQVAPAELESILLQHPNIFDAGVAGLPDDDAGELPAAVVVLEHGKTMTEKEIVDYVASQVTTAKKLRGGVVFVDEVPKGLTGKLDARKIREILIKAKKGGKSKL
# [8] = Luminescence Cell-Based Dose Confirmation HTS to Identify Inhibitors of Platelet Dense Granule Release. [Related pubchem assays: 1663 (Primary HTS), 1678 (Summary of Project)]; assay type: functional
# [9] = molecular target: T1, Ubiquitin-conjugating enzyme E2 N (Homo sapiens, UniProt P61088); assay type: functional;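 also: Dose-response confirmation in a TR-FRET assay detecting UBC13-driven polyubiquitin chain formation, inhibition measured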
# T1 sequence (P61088 whole entry): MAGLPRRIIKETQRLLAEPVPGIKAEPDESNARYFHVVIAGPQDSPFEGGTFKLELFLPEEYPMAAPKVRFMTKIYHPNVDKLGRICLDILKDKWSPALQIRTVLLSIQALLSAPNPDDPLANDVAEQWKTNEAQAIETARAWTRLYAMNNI
# Large T antigen = Large T antigen (Simian virus 40, UniProt P03070); assay type: functional, Betapolyomavirus macacae;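 also: Confirmatory-stage PubChem screen for compounds that inhibit SV40 T antigen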
# Sequence of Large T antigen (P03070 whole entry): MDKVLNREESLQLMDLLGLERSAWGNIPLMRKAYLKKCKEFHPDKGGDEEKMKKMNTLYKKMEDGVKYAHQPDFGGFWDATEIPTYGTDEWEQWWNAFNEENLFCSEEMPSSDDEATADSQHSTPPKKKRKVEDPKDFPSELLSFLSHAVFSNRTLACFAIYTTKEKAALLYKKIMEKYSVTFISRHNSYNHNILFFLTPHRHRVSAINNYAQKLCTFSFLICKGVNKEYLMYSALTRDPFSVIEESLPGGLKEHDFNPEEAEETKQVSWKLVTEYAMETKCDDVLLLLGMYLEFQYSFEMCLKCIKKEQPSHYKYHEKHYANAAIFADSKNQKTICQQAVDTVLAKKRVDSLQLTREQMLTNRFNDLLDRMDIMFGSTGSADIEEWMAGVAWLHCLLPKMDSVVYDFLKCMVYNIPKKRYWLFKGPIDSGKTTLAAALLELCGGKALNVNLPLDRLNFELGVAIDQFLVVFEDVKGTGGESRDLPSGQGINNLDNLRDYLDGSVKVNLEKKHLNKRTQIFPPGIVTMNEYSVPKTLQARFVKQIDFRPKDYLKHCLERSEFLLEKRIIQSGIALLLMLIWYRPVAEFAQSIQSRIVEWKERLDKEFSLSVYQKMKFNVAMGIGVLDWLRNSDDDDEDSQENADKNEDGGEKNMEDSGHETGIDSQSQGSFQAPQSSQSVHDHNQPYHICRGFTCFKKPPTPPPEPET
# [10] = molecular target: T2, Zinc finger protein mex-5 (Caenorhabditis elegans, UniProt Q9XUB2); experiment: potency of MEX-5 RNA-binding blockers – biochemical, C. elegans, fluorescence polarization, dose response (AID 1960)
# T2 sequence (Q9XUB2 whole entry): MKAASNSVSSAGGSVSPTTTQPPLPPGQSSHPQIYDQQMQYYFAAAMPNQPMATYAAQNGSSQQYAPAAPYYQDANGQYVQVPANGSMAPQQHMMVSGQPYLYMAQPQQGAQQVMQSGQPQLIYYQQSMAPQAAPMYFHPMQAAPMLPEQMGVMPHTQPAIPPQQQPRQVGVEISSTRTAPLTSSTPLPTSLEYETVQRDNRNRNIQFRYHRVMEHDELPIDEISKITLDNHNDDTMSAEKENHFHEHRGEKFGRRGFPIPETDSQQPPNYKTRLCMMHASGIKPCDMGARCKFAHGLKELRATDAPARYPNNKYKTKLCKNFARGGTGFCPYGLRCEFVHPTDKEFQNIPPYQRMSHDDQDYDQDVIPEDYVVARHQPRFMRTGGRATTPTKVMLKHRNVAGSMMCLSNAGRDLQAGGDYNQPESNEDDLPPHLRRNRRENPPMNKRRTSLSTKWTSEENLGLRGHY
# [11] = molecular target: T3, RNA-binding protein pos-1 (Caenorhabditis elegans, UniProt G5EF15); experiment: disruptors of C. elegans POS-1 RNA interaction – biochemical, fluorescence polarization, dose response (AID 1964);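 also: purified POS-1 fused to maltose binding protein made in E. coli; potency of compounds blocking POS-1 binding to fluorescent RNA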
# T3 sequence (G5EF15 whole entry): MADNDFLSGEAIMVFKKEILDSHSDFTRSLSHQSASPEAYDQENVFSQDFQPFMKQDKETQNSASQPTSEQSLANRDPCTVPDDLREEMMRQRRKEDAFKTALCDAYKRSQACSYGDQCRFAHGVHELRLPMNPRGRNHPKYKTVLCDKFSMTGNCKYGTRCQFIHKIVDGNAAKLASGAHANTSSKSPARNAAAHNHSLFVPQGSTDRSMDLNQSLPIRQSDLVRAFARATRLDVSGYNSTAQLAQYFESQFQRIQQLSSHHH
# Protein skinhead-1 = molecular target: T4, Protein skinhead-1 (Caenorhabditis elegans, UniProt P34707); assay type: functional
# T4 sequence (P34707 whole entry): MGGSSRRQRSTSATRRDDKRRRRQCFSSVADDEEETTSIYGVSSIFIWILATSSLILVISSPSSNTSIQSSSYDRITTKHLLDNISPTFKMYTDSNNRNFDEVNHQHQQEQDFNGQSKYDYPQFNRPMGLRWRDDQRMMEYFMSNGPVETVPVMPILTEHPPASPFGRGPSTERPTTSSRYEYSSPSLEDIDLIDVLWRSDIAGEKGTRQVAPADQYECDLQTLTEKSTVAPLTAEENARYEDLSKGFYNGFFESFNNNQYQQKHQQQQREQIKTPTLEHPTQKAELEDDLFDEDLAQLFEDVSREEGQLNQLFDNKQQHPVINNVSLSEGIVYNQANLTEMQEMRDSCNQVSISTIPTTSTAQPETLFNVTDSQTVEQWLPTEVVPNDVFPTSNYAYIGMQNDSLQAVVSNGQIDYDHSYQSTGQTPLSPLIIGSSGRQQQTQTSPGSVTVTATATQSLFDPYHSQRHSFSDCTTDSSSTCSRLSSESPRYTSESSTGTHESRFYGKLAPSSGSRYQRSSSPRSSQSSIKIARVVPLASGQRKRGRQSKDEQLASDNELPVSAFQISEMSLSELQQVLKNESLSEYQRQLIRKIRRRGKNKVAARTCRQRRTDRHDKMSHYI
# [12] = molecular target: T5, Heat shock factor protein 1 (Mus musculus, UniProt P38532); experiment: decrease of HSF1-responsive luciferase luminescence – cell-based, NIH3T3, dose retest, confirmation (AID 2382); assay type: functional;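 also: NIH3T3 fibroblasts with HSF1-driven luciferase reporter stressed by proteasome inhibitor MG132; luminescence from HSF1-driven luciferase expression after 8 hours of MG132 stress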
# T5 sequence (P38532 whole entry): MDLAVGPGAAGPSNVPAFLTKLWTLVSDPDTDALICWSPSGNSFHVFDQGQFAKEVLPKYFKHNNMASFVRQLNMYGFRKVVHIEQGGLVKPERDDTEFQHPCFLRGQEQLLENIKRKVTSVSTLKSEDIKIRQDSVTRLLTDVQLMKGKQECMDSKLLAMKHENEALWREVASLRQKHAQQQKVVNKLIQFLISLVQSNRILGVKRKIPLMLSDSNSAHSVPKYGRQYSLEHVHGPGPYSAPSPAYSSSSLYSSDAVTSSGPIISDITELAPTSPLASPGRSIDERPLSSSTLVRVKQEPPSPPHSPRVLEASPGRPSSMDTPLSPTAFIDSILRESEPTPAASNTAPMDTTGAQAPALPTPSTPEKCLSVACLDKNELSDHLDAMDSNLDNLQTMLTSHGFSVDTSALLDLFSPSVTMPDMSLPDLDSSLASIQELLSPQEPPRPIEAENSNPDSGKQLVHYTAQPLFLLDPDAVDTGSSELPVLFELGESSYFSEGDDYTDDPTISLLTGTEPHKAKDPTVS
# INS1 = experiment: INS-1E survival protection against cytokine death – cell-based, luminescence, retest, dose response (AID 449756); assay type: functional; settings: Rattus norvegicus;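 also: cell death triggered by IL-1 beta plus TNF-alpha plus IFN-gamma mixture; protective hits raise ATP signal compared with cytokine alone wells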
smiles,measurement,setting,value
C[C@@H]1CN([C@@H](C)CO)C(=O)c2cccc(NC(=O)CCCCCC(=O)Nc3ccccc3N)c2O[C@@H]1CN(C)Cc1ccc(Cl)c(Cl)c1,AC50,[1],2.51 µM (active)
Cc1ccc(/C=N/NC(=O)c2csc3c2CCCC3)cc1,EC50,[2],1.9 µM (active)
same,EC50,BJ [3],93.4 µM (active)
same,EC50,BJ [4],54.1 µM (active)
same,EC50,BJ [5],2.46 µM (active)
Cc1ccc(S(=O)(=O)NCC23C=CC(O2)C2C(=O)N(c4ccccc4)C(=O)C23)cc1 (configuration not stated),AC50,[6],17.7 µM (active)
O=C(Nc1nccs1)C1CCN(S(=O)(=O)c2ccc(F)cc2)CC1,EC50,[7],> 112 µM (not active)
same,EC50,[8],18.6 µM (active)
C[C@H](CO)N1C[C@H](C)[C@@H](CN(C)Cc2ccc(C(=O)Nc3ccccc3N)cc2)Oc2c(NC(=O)c3cnccn3)cccc2C1=O,AC50,[1],2.45 µM (active)
C[C@H](CO)N1C[C@H](C)[C@@H](CN(C)Cc2ccc(C(F)(F)F)cc2)Oc2c(NC(=O)Nc3ccc(F)cc3)cccc2C1=O,AC50,[1],5.99 µM (active)
CCNc1nc(NC#N)nc(SCC(=O)OCC)n1,EC50,[7],> 112 µM (not active)
same,EC50,[8],> 112 µM (not active)
Cc1ccc(S(=O)(=O)Nc2ccc3c(c2)C(=O)N([C@H](C)CO)C[C@H](C)[C@H](CN(C)Cc2ccc(C(F)(F)F)cc2)OCCCC[C@@H](C)O3)cc1,AC50,[1],3.01 µM (active)
COc1ccc(C(CNC(=O)c2ccc(-c3nc4ccccc4s3)o2)N2CCCC2)cc1 (configuration not stated),IC50,[9],> 20 µM (inactive)
O=c1cc(CN2CCN(c3ccccc3O)CC2)nc2sccn12,EC50,[7],> 112 µM (not active)
same,EC50,[8],53.2 µM (active)
C/N=C1\S/C(=C\c2ccc(O)c(OC)c2)C(=O)N1C,IC50,Large T antigen,11.1 µM (active)
same,EC50,[10],> 300 µM (not active)
same,EC50,[11],> 300 µM (not active)
FC(F)(F)c1cc(CCN2CCNC[C@@H]2c2ccccc2)cc(C(F)(F)F)c1,IC50,[9],> 20 µM (inactive)
COc1ccc(C(=O)N2CCCc3ccccc32)cc1,EC50,[7],> 112 µM (not active)
same,EC50,[8],> 112 µM (not active)
CCOc1cc2c(cc1OCC)C(C(=O)O)C(c1cc(OC)c(OC)c(OC)c1)N(C)C2=O (configuration not stated),IC50,Protein skinhead-1,> 100 µM (inactive)
C[C@H](CO)N1C[C@H](C)[C@H](CN(C)Cc2ccc3c(c2)OCO3)Oc2c(NC(=O)Nc3ccc(C(F)(F)F)cc3)cccc2C1=O,AC50,[1],0.956 µM (active)
COc1ccc(N2CCN(CCCn3c(=S)[nH]c4ncccc4c3=O)CC2)cc1,EC50,[2],58.9 µM (active)
same,EC50,BJ [3],> 150 µM (not active)
same,EC50,BJ [4],44.2 µM (active)
same,EC50,[12],> 195 µM (not active)
same,EC50,BJ [5],> 150 µM (not active)
CC1=Nc2cc(C(=O)NCCCOC(C)C)ccc2Sc2ccc(C)cc21,EC50,[2],2.86 µM (active)
same,EC50,BJ [3],2.75 µM (active)
same,EC50,BJ [4],3.85 µM (inconclusive)
same,EC50,BJ [5],2.72 µM (active)
C[C@@H]1CN([C@H](C)CO)C(=O)c2cccc(NS(=O)(=O)c3ccc(Cl)cc3)c2O[C@@H]1CN(C)Cc1ccccc1,AC50,[1],20 µM (inactive)
O=C(CSc1nc2ccccc2c(=O)n1-c1ccccc1)N1CCc2ccccc2C1,AC50,INS1,3.61 µM (active)
O=C(Nc1ccc(F)cc1)C1CCCCC1,EC50,[7],> 112 µM (not active)
same,EC50,[8],> 112 µM (not active)
